The nature of this data set: Beat-to-beat QTc interval histograms from 24-hour ambulatory ECG (Holter) recordings. The class given is in vivo, patients.

Text: An example of this type of device is a Reynolds Medical Tracker II (Reynolds Medical, Hertford UK) recorder. […] For QT interval analysis, the sample rate can be between 128 and 2000 samples per seconds. The preferred embodiment is the use of a sample rate of at least of at least 1000 samples per second. These digital recorders must also be compatible with a Holter playback system that can produce beat-to beat interval measurements. An example of this type of device is the Reynolds Medical LifeCard CF recorder (Reynolds Medical, Hertford, UK). An example of the compatible Holter playback system is the Reynolds Medical Pathfinder 700 series. […]
Using the digitized file of the electrocardiogram, a QT interval analysis may be accomplished in the following manner: The onset of a Q-wave (Qb) may be defined and a cursor may be placed at this point. […] The data from the digital file may then be replayed at 60-times normal time, while the cursors on the Qb and Te points may be monitored for stability. […] The QT intervals may be measured for the entire AECG recording on a beat-to-beat basis. […]
The peak of an R-wave may be detected and a third cursor may be placed (Rp). […]
In the examples described herein QTc was calculated by removing a time-series of the QT and preceding R--R intervals to a high-speed computer with both a fast processor and adequate disk storage space. […]

As to `COc1cc(N)c(Cl)cc1C(=O)NC1CCN(CCCOc2ccc(F)cc2)CC1OC` (centres unmarked) [cisapride, Cisapride], the “mean QTc interval” value (QTc interval histogram of a single patient taking cisapride (FIG. 3), 24 hour AECG) came to 440 ms. The “mean QTc” value (composite curve of subjects on drug therapy (FIG. 4: subjects on cisapride), normal subjects 409 msec, ILQT 475 msec) is 430 ms.

(Values after patent US20050010123A1, “Process for measuring QT intervals and constructing composite histograms to compare groups” (priority 2003, published 2005).)
